Assay results from patent US6960608B2, “Fused indazoles and indoles and their use for the treatment of glaucoma” (Alcon, Inc., priority 2001, dated 2005).

Columns and labels:
5-HT2 receptor = target: T1, 5-HT2 receptor (Rattus norvegicus, UniProt P14842); test: 5-HT2 functional assay: phosphoinositide (PI) turnover assay; type: cell-based; conditions: for Emax: A7R5, read-out: Efficacy (Emax, %)
T1 construct: A7r5 rat vascular smooth muscle cells; endogenous in cells; host or cells: A7r5 rat vascular smooth muscle cells
Protocol: The relative agonist activity of serotonergic compounds at the 5-HT2 receptor can be determined in vitro using the ability of the compounds to stimulate the production of [^3H]inositol phosphates in [^3H]myo-inositol-labeled A7r5 rat vascular smooth muscle cells by their ability to activate the enzyme phospholipase C. These cells are grown in culture plates, maintained in a humidified atmosphere of 5% CO2 and 95% air and fed semi-weekly with Dulbecco's modified Eagle medium (DMEM) containing 4.5 g/L glucose and supplemented with 2 mM glutamine, 10 μg/ml gentamicin, and 10% fetal bovine serum. For the purpose of conducting the phosphoinositide (PI) turnover experiments, the A7r5 cells are cultured in 24-well plates as previously [J. Pharmacol. Expt. Ther. 286, 411 (1998)]. Confluent cells are exposed for 24-30 hrs to 1.5 μCi [^3H]-myo-inositol (18.3 Ci/mmol) in 0.5 mL of serum-free medium. Cells are then rinsed once with DMEM/F-12 containing 10 mM LiCl prior to incubation with the test agent (or solvent as the control) in 1.0 mL of the same medium for 1 hr at 37° C., after which the medium is aspirated and 1 mL of cold 0.1 M formic acid added to stop the reaction. The chromatographic separation of [^3H]-inositol phosphates ([^3H]-IPs) on an AG-1-X8 column is performed as previously described [J. Pharmacol. Expt. Ther. 286, 411 (1998)] with sequential washes with H2O and 50 mM ammonium formate, followed by elution of the total [^3H]-IPs fraction with 1.2 M ammonium formate containing 0.1 M formic acid. The eluate (4 mL) is collected, mixed with 15 ml scintillation fluid, and the total [^3H]-IPs determined by scintillation counting on a beta-counter. Concentration-response data are analyzed by the sigmoidal fit function of the Origin Scientific Graphics software (Microcal Software, Northampton, MA) to determine agonist potency (EC50 value) and efficacy (Emax).

[1] = system: lasered (hypertensive) eyes of conscious cynomolgus monkeys; test: Acute IOP response in lasered (hypertensive) eyes of conscious cynomolgus monkeys; type: in vivo, cynomolgus monkey; conditions: 300 μg topical, lasered eye
Protocol: Intraocular pressure (IOP) was determined with an Alcon Pneumatonometer after light corneal anesthesia with 0.1% proparacaine. Eyes were washed with saline after each measurement. After a baseline IOP measurement, test compound was instilled in one 30 μL aliquot to the right eyes only of nine cynomolgus monkeys. Vehicle was instilled in the right eyes of six additional animals. Subsequent IOP measurements were taken at 1, 3, and 6 hours. A compound is considered efficacious in this model of ocular hypertension if there is a decrease in the baseline IOP of the lasered eye (O.D.) of at least 20% following topical administration.

T1 sequence (P14842 whole entry): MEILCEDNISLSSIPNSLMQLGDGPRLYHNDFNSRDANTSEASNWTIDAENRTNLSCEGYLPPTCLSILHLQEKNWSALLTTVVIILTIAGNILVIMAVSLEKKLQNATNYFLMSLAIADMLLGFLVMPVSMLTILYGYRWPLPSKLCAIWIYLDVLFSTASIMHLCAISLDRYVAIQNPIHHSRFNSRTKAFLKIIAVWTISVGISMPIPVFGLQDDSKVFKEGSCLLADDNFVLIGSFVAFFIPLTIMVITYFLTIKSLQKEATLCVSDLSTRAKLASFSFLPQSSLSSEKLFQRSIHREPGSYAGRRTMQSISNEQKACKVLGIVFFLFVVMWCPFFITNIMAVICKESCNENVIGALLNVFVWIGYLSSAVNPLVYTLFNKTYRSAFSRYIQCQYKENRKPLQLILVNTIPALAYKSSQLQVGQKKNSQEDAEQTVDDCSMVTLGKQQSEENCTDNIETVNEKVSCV

Row | Compound | melting point [°C] | EC50 (5-HT2 receptor) [nM] | Emax (5-HT2 receptor) [%] | Percent Change in IOP ± SEM ([1]; 1 hour after dose) [%] | Percent Change in IOP ± SEM ([1]; 3 hours after dose) [%] | Percent Change in IOP ± SEM ([1]; 6 hours after dose) [%]
1 | CC(N)Cn1nc2c3c(cc(O)cc31)CCC2.Cl.Cl (stereo not drawn) [Example 1, 2-(2-Aminopropyl)-2,6,7,8-tetrahydro-benzo[cd]indazol-4-ol dihydrochloride] | 286 to 288 | 374 | 85 | −5.9 ± 2.69 | −20.0 ± 3.54 | −21.6 ± 4.91
2 | CC(N)Cn1nc2c3c(ccc(O)c31)CCC2.Cl.Cl (stereo not drawn) [Example 2, 2-(2-Aminopropyl)-2,6,7,8-tetrahydro-benzo[cd]indazol-3-ol dihydrochloride] | 284 to 286 | 1440 | 55 | – | – | –
